Results reported in ChEMBL document CHEMBL5236635, “Structure-Based Drug Design and Synthesis of Novel N-Aryl-2,4-bithiazole-2-amine CYP1B1-Selective Inhibitors in Overcoming Taxol Resistance in A549 Cells” (J Med Chem, 2022).
The source made the active and inactive calls. The calls are words filed in the database; no cut-off is given here.

What was measured:
A549/TR [1] = experiment: Synergistic antiproliferative activity against human A549/Taxol cells assessed as increase in taxol by measuring combination index at 15 uM incubated for 72 hrs in presence of 0.50 uM taxol by MTT assay; assay type: functional
[2] = target: Proto-oncogene tyrosine-protein kinase Src (Homo sapiens) (UniProt P12931); experiment: Inhibition of SRC pathway in human A549/Taxol cells assessed as decrease in phosphorylated FAK level at 2.5 to 5 uM incubated for 24 hrs; assay type: cell-based; conditions: dose 2.5-5 µM
A549/TR [3] = experiment: Synergistic antiproliferative activity against human A549/Taxol cells assessed as increase in taxol by measuring combination index at 7.50 uM incubated for 72 hrs in presence of 0.25 uM taxol by MTT assay; assay type: functional; conditions: dose 7.5 µM
Cytochrome P450 1B1 = target: T1, Cytochrome P450 1B1 (Homo sapiens, UniProt Q16678); experiment: Inhibition of recombinant human CYP1B1 using 7-ethyl-0-resorufin as substrate incubated for 30 mins in presence of NADPH by EROD assay
T1 sequence (Q16678 whole entry): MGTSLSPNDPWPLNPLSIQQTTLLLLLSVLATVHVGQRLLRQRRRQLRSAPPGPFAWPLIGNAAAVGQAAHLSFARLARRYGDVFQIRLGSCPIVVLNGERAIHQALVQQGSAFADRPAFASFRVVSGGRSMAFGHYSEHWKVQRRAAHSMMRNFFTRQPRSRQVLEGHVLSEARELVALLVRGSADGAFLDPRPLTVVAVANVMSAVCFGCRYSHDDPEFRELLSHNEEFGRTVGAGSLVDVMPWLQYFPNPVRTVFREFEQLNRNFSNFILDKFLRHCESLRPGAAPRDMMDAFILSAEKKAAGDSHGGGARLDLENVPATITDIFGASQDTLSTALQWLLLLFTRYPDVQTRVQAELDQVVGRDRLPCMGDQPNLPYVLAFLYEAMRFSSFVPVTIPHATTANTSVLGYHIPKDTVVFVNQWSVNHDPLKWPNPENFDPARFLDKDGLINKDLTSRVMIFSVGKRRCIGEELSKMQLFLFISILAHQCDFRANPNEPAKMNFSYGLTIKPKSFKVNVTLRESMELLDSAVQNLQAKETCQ

A549/TR [4] = experiment: Synergistic antiproliferative activity against human A549/Taxol cells assessed as increase in taxol by measuring combination index at 7.50 uM incubated for 72 hrs in presence of 0.50 uM taxol by MTT assay; assay type: functional; conditions: dose 7.5 µM
A549/TR [5] = experiment: Inhibition of cell invasion in human A549/Taxol cells at 2.5 to 10 uM incubated for 18 hrs by optical microscopic analysis; assay type: functional, cell-based; conditions: dose 2.5-10 µM
A549/TR [6] = experiment: Synergistic antiproliferative activity against human A549/Taxol cells assessed as increase in taxol by measuring combination index at 30 uM incubated for 72 hrs in presence of 1 uM taxol by MTT assay; assay type: functional
A549/TR [7] = experiment: Upregulation of E-cadherin expression level in human A549/Taxol cells at 2.5 to 10 uM incubated for 24 hrs by densitometry analysis; assay type: functional, cell-based; conditions: dose 2.5-10 µM
Cytochrome P450 1A1 = target: T2, Cytochrome P450 1A1 (Homo sapiens, UniProt P04798); experiment: Inhibition of recombinant human CYP1A1 using 7-ethyl-0-resorufin as substrate incubated for 30 mins in presence of NADPH by EROD assay
T2 sequence (P04798 whole entry): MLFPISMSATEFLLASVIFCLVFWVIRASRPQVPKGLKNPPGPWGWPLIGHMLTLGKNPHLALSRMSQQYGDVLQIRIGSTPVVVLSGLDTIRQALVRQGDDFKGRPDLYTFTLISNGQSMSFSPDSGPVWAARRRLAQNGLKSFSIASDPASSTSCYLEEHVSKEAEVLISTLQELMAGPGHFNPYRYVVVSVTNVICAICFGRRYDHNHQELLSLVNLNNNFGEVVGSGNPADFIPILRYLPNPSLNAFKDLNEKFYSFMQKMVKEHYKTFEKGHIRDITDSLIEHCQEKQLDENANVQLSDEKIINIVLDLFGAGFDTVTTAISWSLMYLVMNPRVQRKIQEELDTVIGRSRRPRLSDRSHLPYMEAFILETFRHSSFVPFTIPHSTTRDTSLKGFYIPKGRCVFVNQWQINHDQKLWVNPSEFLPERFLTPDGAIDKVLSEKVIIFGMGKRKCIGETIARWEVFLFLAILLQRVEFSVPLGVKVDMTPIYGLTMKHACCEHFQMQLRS

A549/TR [8] = experiment: Synergistic antiproliferative activity against human A549/Taxol cells assessed as increase in taxol by measuring combination index at 3.75 uM incubated for 72 hrs in presence of 1 uM taxol by MTT assay; assay type: functional
A549/TR [9] = experiment: Synergistic antiproliferative activity against human A549/Taxol cells assessed as increase in taxol by measuring combination index at 15 uM incubated for 72 hrs in presence of 0.13 uM taxol by MTT assay; assay type: functional
A549/TR [10] = experiment: Synergistic antiproliferative activity against human A549/Taxol cells assessed as increase in taxol by measuring combination index at 15 uM incubated for 72 hrs in presence of 0.06 uM taxol by MTT assay; assay type: functional
NCI-H460 [11] = experiment: Inhibition of DMBA-induced CYP1B1 overexpression in human NCI-H460 cells assessed as decrease in E-cadherin level incubated for 24 hrs by densitometry analysis; assay type: functional, cell-based; conditions: dose 5.0 µM
NCI-H460 [12] = experiment: Inhibition of DMBA-induced CYP1B1 overexpression in human NCI-H460 cells assessed as decrease in Vimentin level at 5 uM incubated for 24 hrs by densitometry analysis; assay type: functional, cell-based
A549 [13] = experiment: Inhibition of DMBA-induced CYP1B1 overexpression in human A549 cells assessed as effect on MMP-9 level at 5 uM incubated for 24 hrs by densitometry analysis; assay type: functional, cell-based
A549 [14] = experiment: Inhibition of DMBA-induced CYP1B1 overexpression in human A549 cells assessed as effect on Snail level at 5 uM incubated for 24 hrs by densitometry analysis; assay type: functional, cell-based
NCI-H460 [15] = experiment: Antiproliferative activity against human taxol resistance human NCI-H460 cells assessed as reduction in cell viability incubated for 24 hrs by MTT assay; assay type: functional, cell-based; conditions: dose 5.0 µM
A549 [16] = experiment: Inhibition of DMBA-induced CYP1B1 overexpression in human A549 cells assessed as decrease in E-cadherin level incubated for 24 hrs by densitometry analysis; assay type: functional, cell-based; conditions: dose 5.0 µM
A549 [17] = experiment: Inhibition of DMBA-induced CYP1B1 expression level in human A549 cells at 5 uM incubated for 24 hrs; assay type: functional, cell-based
A549 [18] = experiment: Upregulation of DMBA-induced CYP1B1 expression level in human A549 cells incubated for 24 hrs; assay type: functional, cell-based; conditions: dose 1-10 µM
NCI-H460 [19] = experiment: Inhibition of DMBA-induced CYP1B1 overexpression in human NCI-H460 cells assessed as increase in SRC level at 5 uM incubated for 24 hrs by densitometry analysis; assay type: functional, cell-based
A549/TR [20] = experiment: Reversal of taxol resistance in human A549/Taxol cells assessed as suppression of P-gp expression level at 5 uM incubated for 20 mins by multimode plate reader analysis; assay type: functional, cell-based
A549/Taxol = experiment: Inhibition of AKT pathway in human A549/Taxol cells assessed as decrease in phosphorylated AKT level at 5 uM incubated for 24 hrs; assay type: cell-based
A549 [21] = experiment: Inhibition of DMBA-induced ERK1/2 overexpression in human taxol resistance A549 cells at 5 uM incubated for 24 hrs; assay type: functional, cell-based
A549 [22] = experiment: Inhibition of DMBA-induced cell migration in human A549 cells incubated for 48 hrs by inverted microscopic analysis; assay type: functional, cell-based; conditions: dose 5.0 µM

Chain of Proto-oncogene tyrosine-protein kinase Src (Homo sapiens) (P12931 2-536 limits assumed): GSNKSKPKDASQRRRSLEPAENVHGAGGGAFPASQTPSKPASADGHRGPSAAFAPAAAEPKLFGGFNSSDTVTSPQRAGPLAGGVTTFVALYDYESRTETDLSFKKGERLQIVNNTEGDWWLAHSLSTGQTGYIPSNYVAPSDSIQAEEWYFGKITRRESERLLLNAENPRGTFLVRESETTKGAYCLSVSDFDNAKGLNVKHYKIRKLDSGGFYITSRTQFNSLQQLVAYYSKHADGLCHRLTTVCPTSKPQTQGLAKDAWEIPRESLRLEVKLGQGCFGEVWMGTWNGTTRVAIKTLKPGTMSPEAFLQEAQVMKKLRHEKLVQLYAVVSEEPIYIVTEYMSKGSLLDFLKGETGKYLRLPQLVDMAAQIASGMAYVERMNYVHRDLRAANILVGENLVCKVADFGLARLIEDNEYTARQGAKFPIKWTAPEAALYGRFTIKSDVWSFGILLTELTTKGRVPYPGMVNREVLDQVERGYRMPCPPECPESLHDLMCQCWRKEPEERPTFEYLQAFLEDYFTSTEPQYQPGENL

COc1cc(Nc2nc(-c3nc(-c4ccccc4F)cs3)cs2)cc(OC)c1
CI (A549/TR [1]): 0.4
inhibition [2]: Active
CI (A549/TR [3]): 0.47
IC50 (Cytochrome P450 1B1): 0.0066 µM
CI (A549/TR [4]): 0.66
inhibition (A549/TR [5]): Dose-Dependent Effect
CI (A549/TR [6]): 0.02
Activity (A549/TR [7]): Active
IC50 (Cytochrome P450 1A1): 0.347 µM
CI (A549/TR [8]): 1.89
CI (A549/TR [9]): 0.22
CI (A549/TR [10]): 0.2

COc1cc(/C=C/c2ccc(OC)cc2OC)cc(OC)c1
inhibition (NCI-H460 [11]): Dose-Dependent Effect
inhibition (NCI-H460 [12]): inactive
inhibition (A549 [13]): inactive
inhibition (A549 [14]): inactive
Activity (NCI-H460 [15]): Dose-Dependent Effect
inhibition (A549 [16]): Dose-Dependent Effect
inhibition (A549 [17]): Active
Activity (A549 [18]): Dose-Dependent Effect
inhibition (NCI-H460 [19]): inactive
Activity (A549/TR [20]): Active
inhibition (A549/Taxol): Active
inhibition (A549 [21]): Active
inhibition (A549 [22]): Dose-Dependent Effect
